From PubChem BioAssay AID2305 (GlaxoSmithKline (GSK), 2010)
“And” between values parts separate entries of the source, which are not always exact repeats. Identical values can stand only once.

Test system: P. falciparum 3D7 growth, pLDH absorbance
Experiment: blood-stage malaria parasite growth potency – strain 3D7, dose response (AID 2305)

## O=C(c1ccccc1[N+](=O)[O-])N(Cc1ccccc1)c1ccccn1
  IC50: 190 nM

## CCCn1cc2c(ccc3nc(N)nc(N)c32)n1
  IC50: 80 nM

## CCOC(=O)c1c(CN(CC)CC)n(-c2ccccc2)c2cc(Br)c(O)cc12
  IC50: 1000 nM

## COc1cccc(CNC[C@@H](O)[C@H](Cc2ccccc2)NC(=O)c2cc(C(C)C)cc(N3CCCC3=O)c2)c1
  IC50: 950 nM

## Fc1cccc(Cl)c1-c1nc(NCCC(c2ccccc2)c2ccccc2)no1
  IC50: 550 nM

## CN1CCCc2ccc(NC(=O)Nc3ccc(Cl)c(Cl)c3)cc2C1
  IC50: 600 nM

## COc1ccc(CNCc2ccccc2)cc1-c1ccc(OC)c(S(=O)(=O)NCCN2CCCC2)c1
  IC50: 830 nM

## COc1ccc(NCc2cccc(-c3cccc(CNCCc4ccccc4)c3)c2)cc1
  IC50: 1050 nM

## O=c1cc(NCC2(CNCc3cn(Cc4ccccc4)c4ccccc34)CCCCC2)[nH]c2ccccc12
  IC50: 680 nM

## O=S(=O)(NCCN1CCCC1)c1ccc(-c2ccc(CNCc3ccc(F)cc3)cc2)cc1
  IC50: 790 nM

## Oc1ccc2[nH]c(-c3cccc(F)c3)nc2c1CN1CCCC1
  IC50: 800 nM

## CCCC(=O)Nc1ccc(Nc2nc(C)cc(N3CCCC3)n2)cc1
  IC50: 1490 nM

## NCc1ccc(CNCc2cccc(-c3cccc(-c4nc5ccc(F)cc5[nH]4)c3)c2)cc1
  IC50: 310 nM

## CCCCCCCCOc1ccc(N2C(N)=NC(N)=NC2(C)C)cc1
  IC50: 500 nM

## CN(C)CCOc1ccc2c(c1)OC(C)(C)C=C2c1cccc2ccccc12
  IC50: 780 nM

## Nc1c2ccccc2nc2cc(C(F)(F)F)ccc12
  IC50: 840 nM

## CCc1cn2c3c(cc(C(=O)N[C@@H](Cc4ccccc4)[C@H](O)CNCc4ccc(C)cc4)cc13)N(C)S(=O)(=O)CC2
  IC50: 550 nM

## O=C(CCCCCNC(=O)c1ccc(O)c(-c2ccc(Cl)c(Cl)c2)c1)NCCN1CCOCC1
  IC50: 830 nM

## COc1ccc2nc(N3CCNCC3)nc(NCCCc3ccccc3)c2c1
  IC50: 1000 nM

## O=C(N[C@H]1CCN(Cc2ccc(OCCN3CCNCC3)c3ccccc23)C1)c1ccc(Cl)c(Cl)c1
  IC50: 750 nM

## CN(C)C(C)(C)CN(Cc1ccc(-c2ccc(C(F)(F)F)cc2)cc1)C(=O)Cn1c(CCc2cccc(F)c2F)nc(=O)c2ccccc21
  IC50: 830 nM

## CC(C)(C)c1ccccc1OC(=O)c1ccccc1
  IC50: 740 nM

## O=C(Nc1ccc(N2CCNCC2)cc1)c1ccn2ncc(-c3cccc(Cl)c3)c2n1
  IC50: 920 nM

## CCC[C@@H]([C@@H](CC(C)C)C(=O)N[C@@H](CCCCNC(=O)OCc1ccccc1)C(=O)Nc1ncccn1)N(O)C=O
  IC50: 60 nM

## Cc1sc(NC(=O)c2ccc([N+](=O)[O-])cc2Cl)c(C(N)=O)c1C
  IC50: 930 nM

## CN(C)CCOc1cccc(-c2cnc(N)c(-c3nc4ccc(S(C)(=O)=O)cc4[nH]3)c2)c1
  IC50: 950 nM

## Cc1nc(-c2nc(N3CCC(C(N)=O)CC3)ncc2-c2ccsc2)sc1C
  IC50: 900 nM

## O=C(C=Cc1cccs1)N(CCCn1ccnc1)c1nc2ccc(F)cc2s1
  IC50: 1600 nM

## O=C(/C=C/c1ccc(Cl)c(Cl)c1)NCCCCCN1CCCN(C(=O)Nc2ccc(C(F)(F)F)cc2)CC1
  IC50: 690 nM

## CC(C)(C)c1ccc2nc(-c3ccc(/C=C/C(=O)NC4CCN(Cc5ccccc5)CC4)cc3)[nH]c2c1
  IC50: 590 nM

## CC1CCC(C(C)C)C(OC(=O)CSc2nnc3c(n2)[nH]c2ccccc23)C1 (stereo not given)
  IC50: 930 nM

## CCOc1cc2c(cc1OCC)C(c1ccc(O)c(Cl)c1)NCC2 (stereo not given)
  IC50: 790 nM

## CCCCCN1CCCN(Cc2cccc(NC(=O)c3cc4ccccc4s3)c2)CC1
  IC50: 590 nM

## c1ccc(Oc2ccc(Nc3ccnc(Nc4ccc5cn[nH]c5c4)n3)cc2)cc1
  IC50: 730 nM

## Cc1cccc2[nH]c(-c3ccc(-c4ccc(CN5CCCCC5CO)cc4)cc3)nc12 (stereo not given)
  IC50: 810 nM

## CN1CCN(CCCCCNc2c3ccccc3nc3ccccc23)CC1
  IC50: 740 nM

## COc1ccc(C2c3cc(OC)c(OC)cc3C(=NO)C2C)cc1OC (stereo not given)
  IC50: 1170 nM

## CN1CCC(N2CCN(c3ccc4c(=O)nc(CCc5cccc(F)c5F)n(CC(=O)N(C)Cc5ccc(-c6ccc(C(F)(F)F)cc6)cc5)c4n3)CC2)CC1
  IC50: 720 nM

## CC1CC(C)CN(CC(O)CNC(=O)Nc2ccc(Br)cc2)C1 (stereo not given)
  IC50: 1050 nM

## CCC[C@@H]([C@@H](CC1CCCCC1)C(=O)N[C@H](C(=O)Nc1nccs1)C(C)(C)SCCOCCOCC)N(O)C=O
  IC50: 80 nM

## Cc1ccc(NC(=O)c2ccc3ncccc3c2)cc1OC1CCN(Cc2ccc(F)cc2)CC1
  IC50: 940 nM

## COc1cccc(-n2ncc3c(N/N=C/c4ccc(CN(C)CCN(C)C)cc4)ncnc32)c1
  IC50: 890 nM

## CCOc1ccc2nccc([C@@H](O)[C@@H]3C[C@@H]4CCN3C[C@@H]4CC)c2c1
  IC50: 110 nM and 610 nM

## CCCc1cc(Cc2cnc(N)nc2N)cc(CCC)c1OCCCCC(=O)OCC
  IC50: 50 nM

## O=C(Nc1ccccc1)N(Cc1ccc(-c2ccc(CNCc3ccc4c(c3)OCO4)cc2)cc1)C1CCN(Cc2ccccc2)CC1
  IC50: 570 nM

## O=C(/C=C/c1ccc(Cl)c(Cl)c1)N1CCC(CCCN2CCC(c3c[nH]c4ccc(O)cc34)CC2)CC1
  IC50: 690 nM

## COc1ccccc1CCNc1nc(C)cc(NCCC(=O)NCCOc2ccccc2)n1
  IC50: 1370 nM

## CCNC(=O)N1CCN(c2nc(-c3ccccc3)nc(COC)c2Cc2ccc(C)cc2)CC1
  IC50: 990 nM

## CN1CCCN(Cc2ccc(-c3cccc(NC(=O)c4cccc(C#N)c4)c3)cc2)CC1
  IC50: 650 nM

## Cc1nc2c(-n3cc(Cn4ccnc4)c4ccccc43)ncnc2n1-c1ccc(Cl)cc1Cl
  IC50: 990 nM

## CCOC(=O)c1cnc2c(OC)cc(OC)c(Cl)c2c1Nc1cccc(C)c1C
  IC50: 310 nM

## Cc1nn(-c2ccnc3cc(Cl)ccc23)c(C)c1C(=O)NCc1cc(Cl)cc(Cl)c1
  IC50: 870 nM

## COc1ccc(Cn2c(Nc3cccc(C(F)(F)F)c3)nc3cc(C(=O)NCCN4CCCC4)cnc32)cc1Cl
  IC50: 920 nM

## CN1CCN(c2ccnc3ccc(NC(=O)Nc4ccc(Cl)c(Cl)c4)cc23)CC1
  IC50: 880 nM

## CC(C)Oc1cc2c(cc1NS(=O)(=O)c1ccc(-c3ccc(Cl)cc3)cc1F)CCN(C)CC2
  IC50: 920 nM

## CN1CCC(Oc2ccc(CN3CC[C@H](NC(=O)c4cc(F)cc(F)c4)C3)c3ccccc23)C1 (stereo not given in full)
  IC50: 840 nM

## CNC(=O)c1[nH]c(-c2ccccc2)nc1NC(C)=O
  IC50: 150 nM

## O=C(Nc1cccc(-c2cccc(-c3nc4ccc(C(F)(F)F)cc4[nH]3)c2)c1)c1csnn1
  IC50: 240 nM

## COc1ccc(CNCCCCCCNCc2ccc(OC)c3ccccc23)c2ccccc12
  IC50: 580 nM

## COc1ccccc1CCNc1nc(C)cc(N[C@@H](Cc2ccccc2)C(=O)NCc2cccs2)n1
  IC50: 630 nM

## COc1ccc(NC(=O)NC2CCN(CCCCCNC(=O)/C=C/c3ccc(Cl)c(Cl)c3)CC2)cc1
  IC50: 1010 nM

## CS(=O)(=O)CCNCc1nc(-c2ccc3ncnc(Nc4ccc(OCc5ccccc5)c(Cl)c4)c3c2)cs1
  IC50: 800 nM

## CN1CCC(N2CCN(Cc3ccc(-c4cccc(-c5nc6ccc(F)cc6[nH]5)c4)cc3)CC2)CC1
  IC50: 170 nM

## COc1cc2nc(N(C)C)nc(Nc3ccc(OCc4ccccc4)cc3)c2cc1OC
  IC50: 70 nM

## OCCn1c(CNCCCNc2nc3ccccc3[nH]2)cc2c(Cl)cc(Cl)cc21
  IC50: 810 nM

## CN1CCN(c2ccnc3ccc(NC(=O)Nc4ccc(-c5ccccc5)cc4)cc23)CC1
  IC50: 780 nM

## N=c1n(Cc2ccccc2)c2ccccc2n1CC(O)c1ccc(Cl)c(Cl)c1 (stereo not given)
  IC50: 830 nM

## COc1c(C2CCN(CCCCNC(=O)c3ccc(-c4ccc(C(=O)C(F)(F)F)cc4)cc3)CC2)ccc2c1CCCC2
  IC50: 1100 nM

## CCCCc1cc(NCC)nc(Nc2ccc(OC)cc2)n1
  IC50: 1180 nM

## CCCNC(=O)c1cncc(-c2ccc(CNC3Cc4ccccc4C3)cc2)c1
  IC50: 850 nM

## Cc1cc(-c2cccc(CNCCc3ccc(Cl)cc3)c2)cnc1N
  IC50: 1100 nM

## NC(=Nc1nc(-c2ccccn2)cc2ccccc12)c1cccc(Cl)c1
  IC50: 310 nM

## CCOC(=O)c1cn(CC)c2cc(OCc3ccccc3)ccc2c1=O
  IC50: 950 nM

## O=C(Nc1nccs1)c1cn(-c2ccccc2)nc1-c1ccc(Cl)s1
  IC50: 970 nM

## COc1cccc(C(=O)Nc2nc3c(s2)CCN(Cc2ccccc2N2CCNCC2)CC3)c1
  IC50: 890 nM

## CC1(CCCCN2CCC(c3c[nH]c4cnccc34)CC2)C(=O)Nc2cccc(Cl)c21 (stereo not given)
  IC50: 870 nM

## COc1ccc(N2CCN(CCCCNC(=O)c3ccc(NC(=O)c4ccc(Cl)cc4)cc3)CC2)c(C)c1
  IC50: 760 nM

## O=C(Nc1ccccc1)N1CCC(CN2CCOC(c3ccccc3)(c3ccccc3)C2)CC1
  IC50: 210 nM

## COc1cc2nc(NCCn3cccn3)nc(NCCc3ccccc3)c2cc1OC
  IC50: 280 nM

## O=C(NCc1cccs1)[C@H](Cc1ccccc1)Nc1ccnc(NCCc2ccc(F)cc2)n1
  IC50: 1450 nM

## COc1cc(Nc2ccc3cc(S(=O)(=O)N4CCCCC4C)ccc3n2)cc(OC)c1OC (stereo not given)
  IC50: 1240 nM

## Cc1cc(NN=CC=Cc2ccccc2)c2ccc(F)cc2n1
  IC50: 590 nM

## Cc1cccc(C(=O)N2CCN(Cc3cccc(NC(=O)c4ccco4)c3)CC2)c1
  IC50: 760 nM

## Cc1cccc2[nH]c(-c3ccc(-c4cccc(C(=O)NCCc5cn(C)cn5)c4)s3)nc12
  IC50: 880 nM

## OC(CNc1ccnc(Nc2ccccc2)n1)c1ccc(C(F)(F)F)cc1 (stereo not given)
  IC50: 610 nM

## COc1ccc2c(NN=Cc3ccccc3)cc(C)nc2c1
  IC50: 850 nM

## COc1cccc(CN2CCCC(OC(c3ccc(F)cc3)c3ccc(F)cc3)C2)c1O (stereo not given)
  IC50: 790 nM

## O=c1cc(NCCCNCc2scc3c(Cl)cc(C(F)(F)F)nc23)[nH]c2ccccc12
  IC50: 750 nM

## CN1CC[C@H](N(Cc2ccccc2F)c2ccc(C#N)c(Cl)c2)C1
  IC50: 1270 nM

## CS(=O)(=O)NCCCNCc1cccc(-c2ccc(-c3nc4ccccc4[nH]3)s2)c1
  IC50: 1080 nM

## COc1ccc(C(=O)Nc2ccc(Nc3nc(C)cc(N(C)C)n3)cc2)c(OC)c1
  IC50: 870 nM

## CNC(=O)c1cnc(Nc2ccc(N3CCN(C)CC3)cc2)nc1Nc1ccccc1OC
  IC50: 930 nM

## CCOC(=O)c1c(NC(NC(=O)c2ccc(C(C)(C)C)cc2)C(Cl)(Cl)Cl)sc2c1CCCC2 (stereo not given)
  IC50: 810 nM

## Cc1ccc(CON2C(N)=NC(N)=NC23CCCCC3)c2ccccc12
  IC50: 70 nM

## c1cc(OCCN2CCCC2)ccc1CNC1CCN(CC2CCCCC2)CC1
  IC50: 840 nM

## Cc1noc(C)c1-c1ccc2c(Nc3ccc(Cl)cc3)c(C(N)=O)cnc2c1
  IC50: 830 nM

## CC(C)(CNC(=O)C1CCN(CCOc2ccc(Cl)cc2)CC1)c1nc(-c2ccc(Cl)c(O)c2)c(-c2ccncc2)[nH]1
  IC50: 710 nM

## COc1cc(NC(=O)/C=C/c2cc3ccccc3n2C)ccc1OCCN(C(C)C)C(C)C
  IC50: 390 nM

## COc1cc2nc(N3CCC(CNC(=O)c4ccc(-c5ccc(C#N)cc5C)cc4)CC3)nc(N)c2cc1OC
  IC50: 180 nM

## Cn1c(=O)c2nc(-c3ccc(Cl)cc3)nnc2n(CCCC#N)c1=O
  IC50: 150 nM
